Results on 108 molecules are retold here after PubChem BioAssay AID651717 (Broad Institute, 2012).

For this assay, the system named is mESC Bmi1-luciferase reporter, firefly/renilla ratio, 24 h. Briefly: Bmi1-luciferase reporter activators in mESC, dose response, esBAF inhibitor project, mouse embryonic stem cells, cherry-pick (AID 651717).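 Note: luciferase knocked into Bmi1 locus with EF-1a renilla as cell number control; rising ratio signals esBAF inhibition which derepresses Bmi1.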 On the technique in general: In a reporter assay the amount or activity of a reporter protein is the signal.
For the molecule `CC(C)c1ccc(CNNC(=O)c2ccccc2)cc1`, the AC40 was 2.18 µM.
Next, `N/C(=N\OC(=O)c1cccnc1)c1ccccc1Cl`: 23.6 µM; `COC(=O)C(Cc1c[nH]c2ccccc12)NC(=O)c1ccc2nc[nH]c2c1` (stereo not drawn): 14.7 µM.
As to `C#CCN(CC=C)C(=O)CCc1nnc(COc2ccccc2)o1`, the AC40 was 22.4 µM.
As for `CC(=O)Oc1ccc2cc(-c3ccccc3)c(=O)oc2c1`, the AC40 was 4.46 µM.
Next, `CCCOc1ccc(NC(=O)C2CC(=O)N/C(=N/N=C(C)/C=C/c3ccc(N(C)C)cc3)S2)cc1` (stereo not drawn): 6 µM; `O=C(Nc1ccc(-c2cnco2)cc1)c1ccc(F)cc1F`: 4.28 µM.
Next, `NC(=O)c1sc2nc(-c3cccs3)ccc2c1N`: 2.75 µM; `NCCNC(=O)c1c(NC(=O)c2ccccc2)sc2c1CCCC2`: 34.4 µM; `COc1cccc2sc(NC(=O)c3ccc(Br)s3)nc12`: 1.85 µM.
The value for `O=C(NCCc1ccccc1)c1ccc(Cl)c(S(=O)(=O)N2CCCC2)c1` was 8.04 µM; that for `COc1ccc2[nH]c(=O)c(CNc3cccc(C)c3)cc2c1` was 12.9 µM; that for `COc1ccc(NC(=O)c2cc(F)cc(F)c2)cc1Cl` was 4.77 µM.
Take `Cc1cc(NC(=O)Nc2ccc3c(ccn3C)c2)sn1`: the AC40 was 5.14 µM.
The value for `COc1cccc(NC(=O)c2ccccc2Br)c1` was 4.25 µM; that for `Cc1ccc(Cn2cc(-c3ccccc3)nn2)cc1` was 7.62 µM; that for `COc1ccccc1C(=O)Nc1cccc2cccnc12` was 13.9 µM.
The value for `Cc1ccccc1NC(=O)c1ccc2c(c1)N(C)CCS2` was 3.39 µM; that for `COc1ccc2nc3ccccc3[n+]([O-])c2c1` was 2.1 µM; that for `CN(c1nc(-c2ccccc2)cs1)C1CCS(=O)(=O)C1` (stereo not drawn) was 20.3 µM.
The value for `COc1ccc(C2=Nc3ccccc3NC(=O)C2N(C(=O)c2cc3ccccc3[nH]2)c2ccccc2)cc1` (stereo not drawn) was 1.44 µM; that for `Cc1noc(C)c1C(=O)Nc1nc(-c2cc(F)ccc2F)cs1` was 6.63 µM; that for `O=C(Nc1ccc2c(c1)COC2=O)c1ccc(Cl)c(Cl)c1` was 2.46 µM.
Take `CC(C)(C)Nc1nc(Cl)nc(Nc2ccccc2)n1`: the AC40 was 2.09 µM.
On to `Brc1ccccc1-c1nnc(-c2cccnc2)o1`, for which the AC40 is 6.08 µM.
Take `COc1cc(/C=C/c2ccc(O)cc2)cc(OC)c1`: the AC40 is 2.31 µM.
Next, `C/C(=N/O)c1cccc(N2Cc3ccccc3C2)c1`: 18.5 µM.
Next, `Cc1ccc(Nc2cccccc2=O)cc1`: 3.88 µM; `Oc1[nH]c2ccccc2c1/C=N/c1nccs1`: 4.59 µM; `Cc1ccc(C)c(N2CCN(C(=O)CCc3nc(-c4cccc(Cl)c4)no3)CC2)c1`: 2.83 µM.
Take `COc1ccc(-c2csc(C(O)c3ccc(F)cc3)n2)cc1` (stereo not drawn): the AC40 is 1.54 µM.
Next, `Cc1ccc(Cl)cc1-c1cc(C(=O)Nc2ccc(F)cc2)[nH]n1`: 4.92 µM; `COc1c(C(=O)NNC(=O)c2ccccc2)csc1Br`: 0.646 µM.
The value for `CNc1oc(-c2ccc(OCc3ccccc3)cc2)nc1C#N` was 24.4 µM.
The value for `CCCNC(=O)Nc1ccc2c(c1)C(=O)N(C)C[C@H](OC)[C@@H](C)CN(Cc1ccc(-c3ccccn3)cc1)[C@H](C)CO2` was 1.73 µM.
In the case of `COc1ccc(-c2csc(C(C)(O)c3ccccc3)n2)cc1` (stereo not drawn), the AC40 is 14.9 µM.
Next, `COCOCCn1cc(CN2CCS(=O)(=O)N(Cc3ccc(-c4ccc(Cl)nc4)cc3)C(CC(C)C)C2=O)nn1` (stereo not drawn): 34.2 µM.
Next, `Cc1ccc(NC(=O)C2CC3CCC2C3)c(Br)c1` (stereo not drawn): 1.22 µM; `Cc1ccc2c(COC(=O)C34CC5CC(CC(C5)C3)C4)cc(=O)oc2c1`: 3.95 µM; `CC(=O)N(C)c1nc(-c2ccc(Cl)cc2)cs1`: 5.63 µM.
Next, `Cc1cccc(N=[N+]([O-])c2cccc(C)n2)n1`: 6.4 µM; `COc1cccc(/C=N/n2c(N)nc3ccccc32)c1OC`: 3.21 µM; `CC(=O)N1N=C(c2ccc(Br)cc2)CC1c1ccc(Br)cc1` (stereo not drawn): 14.5 µM.
Turning to `CC(=O)c1ccc(S(=O)(=O)N(Cc2cc3cc4c(cc3[nH]c2=O)OCCO4)CC2CCCO2)cc1` (stereo not drawn), the AC40 is 15.2 µM.
The value for `Cc1c(Cl)cccc1NC(=O)c1cc(C2CC2)on1` was 1.81 µM; that for `Cc1cccc(-c2noc(CCC(=O)N3CCN(c4cc(C)ccc4C)CC3)n2)c1` was 2.82 µM.
`Oc1ccc(/C=N/Nc2nc(-c3cccnc3)nc3ccccc23)c(O)c1`: the AC40 was 11.2 µM.
Next, `O=C(Cc1cccs1)Nc1nc2c(s1)CCCC2`: 1.66 µM.
Next, `COc1ccc(Nc2nc(C)c(C(C)=O)s2)cc1`: 4.13 µM.
Next, `O=C1C(=Cc2ccccn2)CCc2ccccc21`: 20.1 µM; `O=C(Cc1ccccc1)Nc1ccc2c(c1)OC1(CCCC1)O2`: 3.73 µM.
Take `Cc1ccc(NC(=O)NC2CCCCCCC2)cc1C`: the AC40 is 4.22 µM.
The value for `COc1ccc(C2=Nc3ccccc3NC(=O)C2N(C(=O)c2cnc(C)cn2)c2ccc(N3CCOCC3)cc2)cc1` (stereo not drawn) was 21.8 µM; that for `COc1ccc(NC(=O)c2ccc3ccccc3c2OC)cc1` was 2.56 µM.
Next, `COc1cc(SC)ccc1C(=O)NCC1CCCCC1`: 3.03 µM.
Regarding `CC(C)C(=O)Nc1ccc(C(=O)c2ccccc2)cc1`, the AC40 is 8.18 µM.
Next, `CCCCSc1nnc(-c2ccc(OC)cc2)n1C`: 9.08 µM; `COc1ccc(-c2coc3cc(OC(C)=O)ccc3c2=S)cc1`: 0.794 µM.
As to `CCN1C(=O)C(=CC=CN(C)c2ccccc2)SC1=S`, the AC40 was 0.466 µM.
Regarding `O=C(CCc1ccccc1)Nc1ccc(F)cc1F`, the AC40 is 7.22 µM.
As to `CC(C)Cc1cc(C(=O)Nc2ccc(Br)cc2)no1`, the AC40 is 2.96 µM.
The value for `CCC(=O)Nc1cccc(-c2nc3ccccc3o2)c1` was 15.7 µM; that for `Cc1cccc(-c2nc(C#N)c(N3CCCCCC3)o2)c1` was 16.7 µM.
The value for `Cc1ccn2c(CC(C)(C)C)c(-c3ccc(F)cc3)nc2c1` was 1.38 µM; that for `COC(=O)c1sc(Nc2ccccc2)nc1C` was 4.18 µM; that for `CCN(CC)S(=O)(=O)c1cccc(-c2nc3n(n2)Cc2ccccc2-3)c1` was 21.7 µM.
The value for `CCCCNC(=O)CSc1nc2ccc(N3CCOCC3)cc2c(=O)n1Cc1ccc(OC)cc1` was 11 µM; that for `O=C(Nc1nccs1)C(=O)c1c[nH]c2ccccc12` was 0.751 µM; that for `FC(F)Oc1ccccc1/C=N/Nc1nc2ccccc2o1` was 3.81 µM.
For the molecule `C(=Cc1cnnc2ccccc12)c1ccccc1`, the AC40 was 1.23 µM.
For `O=c1c(-c2nc3ccccc3s2)cccn1Cc1ccc(Cl)cc1`, the AC40 was 3.09 µM.
The value for `O=C(Nc1ccc(N2CCCC2)cc1)c1cccc(Cl)c1Cl` was 28.2 µM.
For `COc1ccc(CNC(=O)Nc2ccc(C)cc2)cc1`, the AC40 was 8.63 µM.
Next, `Cc1ccc(N=Nc2cc(C)ccc2O)c(C)c1`: 3.74 µM.
The value for `FC(F)(F)c1ccccc1Cc1c(-c2cccc(Br)c2)nc2c3ccccc3ccn12` was 9.57 µM.
Next, `O=C(Nc1ccc(F)cc1)c1ccccc1F`: 5.97 µM; `CC(Cc1cccs1)NC(=O)c1cccc(Cl)c1` (stereo not drawn): 2.76 µM; `Cc1cccc(NC(=O)CCCc2ccccc2)c1`: 9.57 µM.
For the molecule `CC1(C)C=Cc2cc(-c3coc4cc(O)cc(O)c4c3=O)cc(O)c2O1`, the AC40 was 4.93 µM.
Next, `N#CCc1ccc(OC(=O)c2cccnc2Cl)cc1`: 15.7 µM.
Consider `CCNC(=O)O/N=C(\C)c1sc(-c2ccccc2)nc1C`, for which the AC40 is 3.29 µM.
Next, `CCc1sc(C(=O)Nc2ncccc2C)cc1C`: 20.1 µM.
Next, `CO[C@H]1CN(C)C(=O)c2ccc(NC(=O)Nc3ccc4c(c3)OCO4)cc2OC[C@@H](C)NC[C@@H]1C`: 2.76 µM; `CO[C@@H]1CN(C)C(=O)c2ccc(NC(=O)Nc3ccc4c(c3)OCO4)cc2OC[C@H](C)NC[C@H]1C`: 6.56 µM.
The value for `COc1ccc(OCc2cc(C(=O)N(C)C(C)c3ccon3)no2)c(Cl)c1` (stereo not drawn) was 23.4 µM; that for `O=C(NC1CCCCC1)c1cc(-c2cccc(Cl)c2)on1` was 6.04 µM.
Turning to `Cc1ccc(S(=O)(=O)N(C)CC(=O)Nc2cc(C)ccn2)cc1`, the AC40 is 9.84 µM.
The value for `CCc1sc(C(=O)N2CCN(CC(=O)Nc3cccc(F)c3)CC2)cc1C` was 3.04 µM; that for `Cc1ccc(NC(=O)c2ccc3c(=O)n4c(nc3c2)CCC4)cc1F` was 0.945 µM; that for `C(=NN=Cc1c[nH]c2ccccc12)c1c[nH]c2ccccc12` was 3.9 µM.
The value for `CC(C)CN1C(=O)c2ccc(NC(=O)c3cccs3)cc2C1=O` was 3.84 µM; that for `O=C(Nc1ccc2ccccc2c1)c1cccc2ccccc12` was 0.829 µM; that for `Cc1ccc2nc(-c3cccc(S(=O)(=O)N4CCCC4)c3)cn2c1` was 23.2 µM.
Next, `c1ccc(CCNc2ccc3c(c2)Cc2ccccc2-3)nc1`: 1.53 µM.
With `O=C(NCC1CC1)Nc1ccc(Cl)cc1`, the AC40 is 15.5 µM.
Next, `c1ccc2cc(C3CCCCC3)ncc2c1`: 4.49 µM.
The value for `CCOc1ccc(N=C(/C(C(=O)C(=O)N2CCOCC2)=C(\O)c2ccccc2)c2ccccc2)cc1` was 11.2 µM; that for `Cc1ccsc1CN(C)C(=O)C1CCC(=O)N(CCc2cccc(F)c2)C1` (stereo not drawn) was 5.77 µM.
Next, `CS(=O)(=O)c1ccccc1C(=O)Nc1ccc(-c2nc3ccccc3o2)cc1`: 4.29 µM.
Regarding `COc1ccc(Cc2c(-c3ccccc3)nc3ccc(Br)cn23)c(C)c1`, the AC40 was 8.9 µM.
Next, `Cc1ccc(NCSc2ccc(Cl)cc2)cc1`: 1.66 µM.
For `c1ccc(-c2cnnc(N3CCCCC3)n2)cc1`, the AC40 is 1.99 µM.
Next, `O=C(O)C=C1CCN(c2ncc(C(F)(F)F)cc2Cl)CC1`: 2.07 µM.
As for `Cc1nc(-c2ccccc2)nc2[nH]ccc(=O)c12`, the AC40 was 4.23 µM.
Next, `CCN(CC)S(=O)(=O)c1cccc(-c2cn3cc(C)ccc3n2)c1`: 4 µM; `CCCn1cnc2cc(NCc3ccccc3O)ccc21`: 17.2 µM; `Cc1nc(NCc2ccccc2)sc1C(=O)Nc1ccccc1`: 8.44 µM.
Regarding `COc1ccc2c(c1)CC/C(=C/c1ccccn1)C2=O`, the AC40 was 1.86 µM.
